The subject of series [1] is 4T1 (mouse mammary carcinoma) cells. The series is described as follows: MTT cell viability assay, 4T1. Particulars: 24 h and 48 h; 2.5, 5, 7.5 or 10 μM; vs untreated control. In kind it is cell-based. As for the experimental part: The cells were seeded into 96-well plates at a starting density of 10^4 cells per well and cultured overnight before DEA was added to the medium for 24 h and 48 h. […] The amount of blue formazan dye formed from MTT+ was proportional to the number of live cells, and was determined with an Anthos Labtech 2010 ELISA reader at 550 nm. All experiments were run in at least 4 replicates and repeated 3 times. The effect of desethylamiodarone was measured in T24 (human urinary bladder carcinoma), A549 (human lung adenocarcinoma epithelial), B16F10 (mice melanoma), HeLa (human cervix adenocarcinoma), 4T1 (mouse mammary carcinoma) cell lines. Cells were treated with increasing concentrations of desethylamiodarone for 24 and 48 h. Cell growth was assessed by measuring metabolic activity, which reflects viability in the MTT-test in the course of 24 h, 48 h of continued exposure to desethylamiorarone. The untreated cells served as negative controls. The viability of the cells, was lower in all DEA-treated than in the control group, with the difference being statistically significant. […] 4T1 cells were incubated with the indicated concentrations (2.5, 5, 7.5 or 10 μM) of desethylamiodarone for 24 h and 48 h and cell viability was measured by MTT assay (filled bars). Untreated cells served as controls. Data represent means±S.E.M. of three independent experiments, each running in four replicates.

Another series relates to AKT (protein kinase B). The series is described as follows: Western blot of Akt phosphorylation. In kind it is cell-based, human. Particulars: 5-10-15 μM, 6 hours; T24, B16F10 cell lines. On the procedure: (§1) 10^6 cells were seeded into regular plates and treated as for the cell viability assay. Cells were harvested at intervals in a chilled lysis buffer containing 0.5 mM sodium-metavanadate, 1 mM ethylenediaminetetraacetic acid (EDTA) and protease inhibitor cocktail in phosphate-buffered saline (PBS). Probes were boiled and subjected to 10% sodium dodecyl sulphate polyacrylamide gel electrophoresis then transferred to nitrocellulose membranes. The membranes were blocked in 5% low fat milk for 1.5 h at room temperature then exposed to primary antibodies at 4° C. overnight in blocking solution. Appropriate horseradish peroxidase-conjugated secondary antibodies were used at a 1:5000 dilution (anti-mouse and anti-rabbit IgGs; Sigma-Aldrich, Steinheim, Germany) and visualized by enhanced chemiluminescence (Amersham Biosciences, Piscataway, N.J., USA). All experiments were repeated 3 times.
To determine the downstream consequences of DEA treatment, we examined the phosphorylation status of AKT (protein kinase B), GSK-3β and p42/44 mitogen-activated protein kinase (MAPK) (ERK1/2) by immunoblotting in T24 (human urinary bladder carcinoma), B16F10 (mice melanoma) cell lines. Cells were cultured in the presence of 5-10-15 μM DEA for 6 hours. The cells were prepared and western blot analysis was carried out to perform both phosphorylated and non-phosphorylated forms of the previously listed proteins. […]

Series [2] deals with B16F10 melanoma lung metastasis. The series is described as follows: Mouse model of B16F10 lung metastasis. In kind it is in vivo, C57BL/6 mice. On the procedure: To produce experimental metastasis model, male C57BL/6 mice (6 weeks old) were used. B16F10 cells ([…]/0.1 ml) were injected into the lateral tail vein of C57BL/6 mice, using a 30G1/2 needle and a 1-mL syringe. Mice were randomly divided into 3 groups of 6 mice each. Each mouse was given a daily intragastric injection of either 100 μl 15% ethanol solution as the vehicle control or 25 mg/kg DEA. Treatment was started 1 day before cell injection and was given every third day, lasted for consecutive 16 days Sixteen days after injection, the animals were weighed and killed. The lungs were removed, rinsed in PBS, and weighed. The lung weight index was calculated as the ratio of lung weight vs body weight. The harvested lungs were fixed in 4% formalin. Tumor foci on the surfaces of the lungs were counted under a stereomicroscope. Then, the whole lung was embedded in optimum cutting temperature compound (Sakura Finetek, SA), sectioned ([…], 5 levels), and stained with hematoxylin and eosin (H&E) according to routine protocols. […] The percentage of total area of the stained sections occupied by tumor was measured using the Panoramic viewer 1.15.4 (3[…], Hungary) Murine melanoma B16F10 cells were injected into the lateral tail vein of 6-weeks-old male C57BL/6 mice and divided into two groups (6 mice/group). […] Lungs were photographed (FIG. 9 A,B), weighted and lung weight index was calculated as the ratio of lung weight versus body weight of host mice, and was compared between the two groups. […] Metastatic nodules on lung surface were counted. […] 24 h after injection of melanoma B16F10 cells, mice in the control group were treated with vehicle (alcohol), mice in the treatment group were injected with desethylamiodarone (25 mg/kg, i.p., every 3rd day.) After 16 day's mice were sacrificed and then analyzed. […] Lung weight was determined and lung weight index was calculated (C). Tumor growth was monitored also by counting the tumor nodules (D). […] Lung tissue sections were analyzed histopathological after H & E staining. […]

For series [3] the following is noted: after administration of amiodarone; cited from earlier work.
Another series concerns BMI1. The series is described as follows: Western blot of BMI1 expression in T24 cells. In kind it is cell-based, human. To be noted: T24 cells, 5, 10 and 15 μM, 24 h. On the procedure:
as §1
T24 cells were exposed to 5, 10 and 15 μM of DEA for 24 h intervals. Equal amounts of lysate protein were subjected to gel electrophoresis. GAPDH was used as loading control. Results are presented as representative immunoblots (top panel) and densitometric analysis of Western blots in bar diagrams (bottom graph). Data are expressed as the mean±1 SD, n=3 and presented as fold difference from control (medium). Significant difference from control: *p<0.05.
Background: A western blot detects proteins with antibodies after separation by electrophoresis.

The mark [4] stands for this setting: 25 mg/kg i.p. every 3rd day, day 16, B16F10 tail vein injection.

As for `CCCCc1oc2ccccc2c1C(=O)c1cc(I)c(OCCNCC)c(I)c1` [DEA, (2-butyl-3-benzofuranyl)[4-[2-(ethylamino)ethoxy]-3,5-diiodophenyl]-methanone], the “Viability of 4T1 cells (MTT)” value in series [1] is listed as “Significantly different from control group at p<0.05”. Further, in the series with AKT (protein kinase B), the “Akt (Ser473) phosphorylation” value is reported as “repressed Akt (Ser473) phosphorylation in a concentration-dependent manner”. Further, in series [2] (setting [4]), the “Lung weight index (lung weight versus body weight)” value is recorded as “significantly *P<0.001 inhibited lung weight increase” and the “Number of tumor nodules on lung surface” value is on record as “dramatically decrease in the number of tumor nodules”. Besides, the “Percentage of tumor area over lung section area (H&E)” value in series [2] (25 mg/kg/3 days, n=6 per group) is “significantly decreased”. Further, the “Concentration in the lungs” value in series [3] is “can reach mM concentrations”. Also, in the series with BMI1, the BMI1 expression result was “significantly suppresses BMI1 expression”.

The values are drawn from US9884040B2, “Desethylamiodarone for use in cancer treatment” (PÉCSI TUDOMÁNYEGYETEM, priority 2015, dated 2018).
